The values that follow come from patent publication US8519188B2, “Compounds which can be used for the treatment of cancers” (Marc-Henry Pitty, priority 2008, dated 2013).

Some results are limits rather than exact numbers.

Experiment [1] concerns MCF-7/adr adriamycin-resistant breast cancer cell line. Briefly: Cell proliferation (CellTiter 96 AQueous MTS/PMS), MCF-7/adr. Format: cell-based. As to conditions: Homo sapiens, NCI/ADR-RES; MCF-7/adr; 72 hours of incubation; concentration that induces the death of 50% of the cells; read-out: CI50 for various cell lines (nM) MCF-7/adr. The protocol: (§1) The effects of the compounds of the invention on the proliferation of cancer cells were studied on various human cancer cell lines of various tissue origins (MCF-7: breast cancer, MCF-7/adr adriamycin-resistant breast cancer, ARH-77: myeloma, ARH-77/Dox: doxorubicin (other name for adriamycin)-resistant myeloma, HL-60: acute promyelocytic leukaemia, HL-60/R10: doxorubicin-resistant acute promyelocytic leukaemia). The cancer cells used for this study were incubated at 37° C. in the presence of one of the compounds of the invention added to the culture medium at various concentrations.
(§2) The cancer cell lines originate from the ATCC (American Type Culture Collection) in the case of MCF-7, ARH-77 and HL-60, from Pharmacell (Paris, France) for HL-60/R10, from Oncodesign (Dijon, France) for ARH-77/Dox and from the Pitié Salpetrière Hospital for MCF-7/adr. They were cultivated in a RPMI 1640 medium containing 2 mM L-glutamine and supplemented with 10% foetal calf serum. All the cell lines were maintained in culture at 37° C. in a moist atmosphere containing 5% CO2. Cell proliferation was evaluated using the “CellTiter 96® AQueous” reagent (Promega, Wis., USA) while adhering to the manufacturer's instructions. The cells were seeded in 96-well culture plates in a proportion of from 5,000 to 10,000 cells per well in 200 μl of culture medium. After 24 hours of preincubation at 37° C., the compounds of the invention dissolved in dimethyl sulphoxide (DMSO) were added individually to each of the wells in a proportion of 2 μl per well. After 72 hours of incubation at 37° C. in a moist atmosphere containing 5% CO2, 40 μL of a MTS/PMS ([3-(4,5-dimethylthiazol-2-yl)-5-(3-carboxymethoxyphenyl)-2-(4-sulphophenyl)-2H-tetrazolium phenazine methosulphate) solution were added to each well.

For experiment [2], the system named is MCF-7 breast cancer cell line. As to the kind of experiment: Cell proliferation (CellTiter 96 AQueous MTS/PMS), MCF-7. The experiment is classed as cell-based. The note with it: Homo sapiens, MCF7; MCF-7; 72 hours of incubation; concentration that induces the death of 50% of the cells; read-out: CI50 for various cell lines (nM) MCF-7. The protocol:
as §1, §2

In experiment [3] the test system is HL-60 acute promyelocytic leukaemia cell line. As to the kind of experiment: Cell proliferation (CellTiter 96 AQueous MTS/PMS), HL-60. Format: cell-based, human. As to conditions: Homo sapiens; HL-60; 72 hours of incubation; read-out: CI50 for various cell lines (nM) HL-60. The protocol:
as §1, §2

The subject of experiment [4] is HL-60/R10 doxorubicin-resistant acute promyelocytic leukaemia cell line. Briefly: Cell proliferation (CellTiter 96 AQueous MTS/PMS), HL-60/R10. Format: cell-based, human. The note with it: Homo sapiens; HL-60/R10; 72 hours of incubation; read-out: CI50 for various cell lines (nM) HL-60/R10. The protocol: as §1, §2

With `C#CC(=O)N(c1cccc(C(F)(F)F)c1)C(C(=O)NC1CCCCC1)c1cccc(F)c1F` (stereo not shown) [Compound 106, Propynoic Acid [cyclohexylcarbamoyl-(2,3-difluorophenyl)methyl]-(3-trifluoromethylphenyl)amide], the IC50 in experiment [1] was 1 nM; in experiment [2], 260 nM.
The like results for `O=C(NC1CCCCC1)C(c1cccs1)N(C(=O)CBr)c1cccc(C(F)(F)F)c1` (stereo not shown) [Compound 107, 2-[(2-Bromoacetyl)-(3-trifluoromethylphenyl)amino]-N-cyclohexyl-2-thiophen-2-yl-acetamide] were, in that order, 0.5 nM and 267 nM.
The like results for `COc1ccc(N(C(=O)CCl)C(C(=O)NC2CCCCC2)c2cccs2)cc1` (stereo not shown) [Compound 109, 2-[(2-Chloroacetyl)-(4-methoxyphenyl)amino]-N-cyclohexyl-2-thiophen-2-yl-acetamide] were, in that order, 1 nM and 100 nM.
The corresponding values for `O=C(NC1CCCCC1)C(c1cccs1)N(C(=O)CCl)c1cccc(C(F)(F)F)c1` (stereo not shown) [Compound 110, 2-[(2-Chloroacetyl)-(3-trifluoromethylphenyl)amino]-N-cyclo hexyl-2-thiophen-2-yl-acetamide] are 1 nM and 70 nM.
Consider `C#CC(=O)N(c1cccc(C(F)(F)F)c1)C(C(=O)Nc1ccccc1OCc1ccccc1)c1cccs1` (stereo not shown) [Compound 112, Propynoic Acid [(2-benzyloxyphenylcarbamoyl)thiophen-2-yl-methyl]-(3-trifluoromethylphenyl)amide], for which the IC50 in experiment [1] was determined as 1.8 nM; in experiment [2], 200 nM.
The like results for `N#Cc1cccc(N(C(=O)CCl)C(C(=O)NC2CCCCC2)c2cccs2)c1` (stereo not shown) [Compound 121, 2-[(2-Chloroacetyl)-(3-cyanophenyl)amino]-N-cyclohexyl-2-thiophen-2-yl-acetamide] were, in that order, 70 nM and 252 nM.
The like results for `N#Cc1ccc(N(C(=O)CCl)C(C(=O)NC2CCCCC2)c2cccs2)cc1` (stereo not shown) [Compound 122, 2-[(2-Chloroacetyl)-(4-cyanophenyl)amino]-N-cyclohexyl-2-thiophen-2-yl-acetamide] were, in that order, 4 nM and 300 nM.
Regarding `COc1ccccc1N(C(=O)CCl)C(C(=O)NC1CCCCC1)c1cccs1` (stereo not shown) [Compound 124, 2-[(2-Chloroacetyl)-(2-methoxyphenyl)amino]-N-cyclohexyl-2-thiophen-2-yl-acetamide], the IC50 in experiment [1] is 27 nM; in experiment [2], > 2000 nM.
On to `CCN(CC)c1ccc(N(C(=O)CCl)C(C(=O)NC2CCCCC2)c2cccs2)cc1` (stereo not shown) [Compound 127, 2-[(2-Chloroacetyl)-(4-diethylaminophenyl)amino]-N-cyclohexyl-2-thiophen-2-yl-acetamide], for which the IC50 in experiment [1] was 7.5 nM; in experiment [2], 77 nM.
The corresponding values for `O=C(NC1CCCCC1)C(c1cccs1)N(C(=O)CCl)c1ccc(O)cc1` (stereo not shown) [Compound 128, 2-[(2-Chloroacetyl)-(4-hydroxyphenyl)amino]-N-cyclohexyl-2-thiophen-2-yl-acetamide] are 86 nM and 133 nM.
The corresponding values for `O=C(NC1CCCCC1)C(c1cccs1)N(C(=O)CCl)c1ccc(C(F)(F)F)cc1` (stereo not shown) [Compound 129, 2-[(2-Chloroacetyl)-(4-trifluoromethylphenyl)amino]-N-cyclohexyl-2-thiophen-2-yl-acetamide] are 3.6 nM and 77 nM.
The corresponding values for `O=C(CN(C(=O)CCl)c1cccc(C(F)(F)F)c1)NC1CCCCC1` [Compound 130, 2-Chloro-N-cyclohexylcarbamoylmethyl-N-(3-trifluoromethylphenyl)acetamide] are 34 nM and 203 nM.
As to `O=C(NC1CCCCC1)C(c1cccs1)N(C(=O)CCl)c1cccc2ccccc12` (stereo not shown) [Compound 134, 2-[(2-Chloroacetyl)naphthalen-1-yl-amino]-N-cyclohexyl-2-thiophen-2-yl-acetamide], the IC50 in experiment [1] is 74 nM; in experiment [2] it was > 1000 nM.
For `O=C(NC1CCCCC1)C(c1cccs1)N(C(=O)CCl)c1ccc2c(c1)OCO2` (stereo not shown) [Compound 135, 2-[1,3-Benzodioxol-5-yl-(2-chloroacetyl)amino]-N-cyclo hexyl-2-thiophen-2-yl-acetamide], the figures for the IC50 in experiment [1] and in experiment [2] were 19 nM and 285 nM, respectively.
The corresponding values for `COC(=O)CCNC(=O)C(c1cccs1)N(C(=O)CCl)c1cccc(C(F)(F)F)c1` (stereo not shown) [Compound 139, 3-{2-[(2-Chloroacetyl)-(3-trifluoromethylphenyl)amino]-2-thiophen-2-yl-acetylamino}propionic acid methyl ester] are 63 nM and 468 nM.
The like results for `CN(C)c1ccc(C(C(=O)NC2CCCCC2)N(C(=O)CCl)c2cccc(C(F)(F)F)c2)cc1` (stereo not shown) [Compound 147] were, in that order, 1.1 nM and 92 nM.
The like results for `O=C(NC1CCCCC1)C(c1ccc(N2CCCC2)cc1)N(C(=O)CCl)c1cccc(C(F)(F)F)c1` (stereo not shown) [Compound 150] were, in that order, 0.6 nM and 230 nM.
For `COC(=O)c1cccc(NC(=O)C(c2cccs2)N(C(=O)CCl)c2cccc(C(F)(F)F)c2)c1` (stereo not shown) [Compound 153], the IC50 was determined as 1.3 nM in experiment [1] and 79 nM in experiment [2].
Regarding `COC(=O)c1ccc(NC(=O)C(c2cccs2)N(C(=O)CCl)c2cccc(C(F)(F)F)c2)cc1` (stereo not shown) [Compound 154], the IC50 in experiment [1] stood at 3.5 nM; in experiment [2], 88 nM.
On to `CC(C)(C(=O)NCc1ccc(F)cc1)N(C(=O)CCl)c1ccc(F)cc1` [Compound 185, 2-[(2-Chloroacetyl)-(4-fluoro-phenyl)-amino]-N-(4-fluoro-benzyl)-2-methyl-propionamide], for which the IC50 is 127 nM in experiment [1] and 2790 nM in experiment [2].
In the case of `COc1ccc(CNC(=O)C(C)(C)N(C(=O)CCl)c2ccc(F)cc2)cc1` [Compound 186, 2-[(2-Chloro-acetyl)-(4-fluoro-phenyl)-amino]-N-(4-methoxy-benzyl)-2-methyl-propionamide], the IC50 amounted to 362 nM in experiment [3] and 78 nM in experiment [4].
As to `COc1ccc(CNC(=O)C(C)(C)N(C(=O)CCl)c2ccc(Oc3ccccc3)cc2C)cc1` [Compound 187, 2-[(2-Chloro-acetyl)-(2-methyl-4-phenoxy-phenyl)-amino]-N-(4-methoxy-benzyl)-2-methyl-propionamide], the IC50 was 99 nM in experiment [1] and 1130 nM in experiment [2].
Regarding `Cc1c(Cl)cccc1N(C(=O)CCl)C(C)(C)C(=O)NCc1ccc(F)cc1` [Compound 188, 2-[(2-Chloro-acetyl)-(3-chloro-2-methyl-phenyl)-amino]-N-(4-fluoro-benzyl)-2-methyl-propionamide], the results for the IC50 in experiment [3] and in experiment [4] were 2500 nM and 176 nM, respectively.
With `CN1CCN(CCCOc2ccc(C(C(=O)NC3CCCCC3)N(C(=O)CCl)c3cccc(C(C)(C)C)c3)cc2)CC1` (stereo not shown) [Compound 189, 2-[(3-tert-Butyl-phenyl)-(2-chloro-acetyl)-amino]-N-cyclohexyl-2-[4-[3-(4-methyl-piperazin-1-yl)-propoxy]-phenyl]-acetamide], the IC50 turned out to be 72 nM in experiment [1] and 360 nM in experiment [2].
For the compound `O=C(C(c1cccs1)N(C(=O)CCl)c1cccc(C(F)(F)F)c1)N1CCN(C2CCCCC2)CC1` (stereo not shown) [Compound 197], the values for the IC50 in experiment [1] and in experiment [2] were 37 nM and 1380 nM, respectively.
Regarding `O=C(OCc1ccccc1)N1CCN(C(=O)C(c2cccs2)N(C(=O)CCl)c2cccc(C(F)(F)F)c2)CC1` (stereo not shown) [Compound 198, 4-{2-[(2-chloro-acetyl)-(3-trifluoromethyl-phenyl)-amino]-2-thiophen-2-yl-acetyl}-piperazine-1-carboxylic acid benzyl ester], the figures for the IC50 in experiment [1] and in experiment [2] were 55 nM and 1080 nM, respectively.
The like results for `CC(C)c1cccc(N(C(=O)CCl)C(C(=O)N2CCN(C3CCCCC3)CC2)c2cccs2)c1` (stereo not shown) [Compound 199] were, in that order, 23 nM and 1860 nM.
`CN(C(=O)N1CCN(C(=O)C(c2cccs2)N(C(=O)CCl)c2cccc(C(F)(F)F)c2)CC1)c1ccccc1` (stereo not shown) [Compound 204, 4-{2-[(2-Chloroacetyl)-(3-trifluoromethylphenyl)-amino]-2-thiophen-2-yl-acetyl}piperazine-1-carboxylic acid methylphenyl-amide]: the values for the IC50 in experiment [1] and in experiment [2] were 89 nM and 741 nM, respectively.
The like results for `O=C(OCc1ccccc1)N1CCN(C(=O)C(c2cccs2)N(C(=O)CCl)c2ccc(Oc3ccccc3)cc2)CC1` (stereo not shown) [Compound 206] were, in that order, 38 nM and 2500 nM.
